Results: patent US20140287419A1, “Compositions Having Dicamba Decarboxylase Activity and Methods of Use” (priority 2013, published 2014)
Entries after “also recorded” stand apart in the source; their conditions may differ.

What was measured:
[1] = tested on: Soybean seeds of a Pioneer elite germplasm; experiment: Soybean germination phytotoxicity test; details: for soybean seed germination and growth: 16 days
[2] = tested on: Arabidopsis ecotype Columbia (Col-O); experiment: Arabidopsis root growth inhibition assay; details: 6 days
Experimental: Phytotoxicity of other major dicamba decarboxylated products was evaluated using Arabidopsis root growth inhibition assay. 4-chloro-3-methoxy phenol was purchased from Biogene Organics, Inc. (catalog number U06-642-79). 2,5-dichloro phenol was purchased from Sigma-Aldrich (catalog number D70007). Briefly, seeds of Arabidopsis ecotype Columbia (Col-O) were surface sterilized with 70% (v/v) ethanol for 5 minutes and 10% (v/v) bleach for 15 minutes. After being washed three times with distilled water, the seeds were germinated on 1× Murashige and Skoog (MS) medium with a pH of 5.7, 3% (w/v) sucrose, and 0.8% (w/v) agar. After incubation for 3.5 days, the seedlings were transferred to 1× MS medium containing B5 vitamin, 3% (w/v) sucrose, 1.2% (w/v) agar, and filter sterilized compounds was added to the media at 60° C. The concentrations of compounds including dicamba were 0 μM, 1.0 μM, and 10 μM. The seedlings were placed vertically, and the temperature maintained at 23° C. to allow root growth along the surface of the agar, with a photoperiod of 16 h of light and 8 h of dark.
After 6 days on media, root growth was evaluated. In wild type Arabidopsis, root growth inhibition is expected from auxin herbicide treatment.

Compound | soybean seed germination and growth ([1]; 1 μM in germination media) | soybean seed germination and growth ([1]; 10 μM in germination media) | soybean seed germination and growth ([1]; 100 μM in germination media) | soybean germination ([1]; FIG. 2 legend, no concentration given) | Arabidopsis root growth ([2]; 1.0 uM in MS medium) | Arabidopsis root growth ([2]; 10 uM in MS medium)
COc1cc(Cl)ccc1Cl [2,5-DCA, 2,5-dichloro anisole] | seed germination and growth were normal | seed germination and growth were normal | did not have any obvious impact on soybean germination and growth | not affected | – | –
Oc1cc(Cl)ccc1Cl [2,5-dichloro phenol] | – | – | – | – | not affected; also recorded: did not have any effect on the growth of Arabidopsis roots | not affected; also recorded: did not have any effect on the growth of Arabidopsis roots
